Patent publication US9505726B2, “Substituted biphenyl amides as P2X3 and P2X2/3 antagonists” (Roche Palo Alto LLC, priority 2009, dated 2016)

Target: T1, rat P2X3 receptor (Rattus norvegicus, UniProt P49654)
T1 construct: expressed in transfected cells; host or cells: CHO-K1
T1 sequence (P49654 1-397): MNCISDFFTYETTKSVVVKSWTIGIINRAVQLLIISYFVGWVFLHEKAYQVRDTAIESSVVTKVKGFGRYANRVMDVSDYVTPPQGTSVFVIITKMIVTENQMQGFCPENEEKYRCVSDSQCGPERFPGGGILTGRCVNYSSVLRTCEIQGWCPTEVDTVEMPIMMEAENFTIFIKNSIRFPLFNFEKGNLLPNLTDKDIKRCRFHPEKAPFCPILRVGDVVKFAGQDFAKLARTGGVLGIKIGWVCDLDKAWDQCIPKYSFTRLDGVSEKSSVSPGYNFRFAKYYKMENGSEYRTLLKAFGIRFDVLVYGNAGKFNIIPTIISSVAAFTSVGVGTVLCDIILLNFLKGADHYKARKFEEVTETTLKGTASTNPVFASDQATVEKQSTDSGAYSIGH
Assay: P2X3 FLIPR (Fluorometric Imaging Plate Reader) assay
Assay type: cell-based
Details: CHO-K1 cells transfected with cloned rat P2X3, agonist α,β-meATP 1 μM, Fluo-3 AM calcium fluorescence; for IC50: read-out: P2X3 (pIC50 values for the P2X3 receptor) (converted)
Procedure: CHO-K1 cells were transfected with cloned rat P2X3 or human P2X2/3 receptor subunits and passaged in flasks. 18-24 hours before the FLIPR experiment, cells were released from their flasks, centrifuged, and resuspended in nutrient medium at 2.5×10^5 cells/ml. The cells were aliquoted into black-walled 96-well plates at a density of 50,000 cells/well and incubated overnight in 5% CO2 at 37° C. On the day of the experiment, cells were washed in FLIPR buffer (calcium- and magnesium-free Hank's balanced salt solution, 10 mM HEPES, 2 mM CaCl2, 2.5 mM probenecid; FB). Each well received 100 μl FB and 100 μl of the fluorescent dye Fluo-3 AM [2 μM final conc.]. After a 1 hour dye loading incubation at 37° C., the cells were washed 4 times with FB, and a final 75 μl/well FB was left in each well.
Test compounds (dissolved in DMSO at 10 mM and serially diluted with FB) or vehicle were added to each well (25 μl of a 4× solution) and allowed to equilibrate for 20 minutes at room temperature. The plates were then placed in the FLIPR and a baseline fluorescence measurement (excitation at 488 nm and emission at 510-570 nm) was obtained for 10 seconds before a 100 μl/well agonist or vehicle addition. The agonist was a 2X solution of α,β-meATP producing a final concentration of 1 μM (P2X3) or 5 μM (P2X2/3). Fluorescence was measured for an additional 2 minutes at 1 second intervals after agonist addition. A final addition of ionomycin (5 μM, final concentration) was made to each well of the FLIPR test plate to establish cell viability and maximum fluorescence of dye-bound cytosolic calcium. Peak fluorescence in response to the addition of α,β-meATP (in the absence and presence of test compounds) was measured and inhibition curves generated using nonlinear regression. PPADS, a standard P2X antagonist, was used as a positive control.

With `COCC(C)NC(=O)c1cc(NC(=O)c2c(-c3ccccc3)noc2C)cc(-c2ccc(C)cc2)c1` (stereo not drawn) [Compound 12, 5-Methyl-3-phenyl-isoxazole-4-carboxylic acid [5-(2-methoxy-1-methyl-ethylcarbamoyl)-4′-mcthyl-biphenyl-3-yl]-amide] the “P2X3 (pIC50 values for the P2X3 receptor)” value was 5.59.

`COCC(C)NC(=O)c1cc(NC(=O)c2sccc2C)cc(-c2ccc(C)cc2)c1` (stereo not drawn) [Compound 14, 3-Methyl-thiophene-2-carboxylic acid [5-(2-methoxy-1-methyl-ethylcarbamoyl)-4′-methyl-biphenyl-3-yl]-amide] was tested, and the “P2X3 (pIC50 values for the P2X3 receptor)” value was 5.35.

In the case of `COCC(C)NC(=O)c1cc(NC(=O)c2cc(C)on2)cc(-c2ccc(C)cc2)c1` (stereo not drawn) [Compound 16, 5-Methyl-isoxazole-3-carboxylic acid [5-(2-methoxy-1-methyl-ethylcarbamoyl)-4′-methyl-biphenyl-3-yl]-amide], the “P2X3 (pIC50 values for the P2X3 receptor)” value is reported as 5.4.

With `Cc1ccc(-c2cc(C(=O)NC(C)c3cnccn3)cc(N(C)C(=O)C3CC3)c2)cc1` (stereo not drawn) [Compound 34, 5-(Cyclopropanecarbonyl-methyl-amino)-4′-methyl-biphenyl-3-carboxylic acid (1-pyrazin-2-yl-ethyl)-amide] the IC50 was 0.0107 µM.

With `Cc1ccc(-c2cc(C(=O)NC(C)c3cnccn3)cc(N(C)C(=O)C(C)C)c2)cc1` (stereo not drawn) [Compound 33, 5-(Isobutyryl-methyl-amino)-4′-methyl-biphenyl-3-carboxylic acid (1-pyrazin-2-yl-ethyl)-amide] the “P2X3 (pIC50 values for the P2X3 receptor)” value was 8.3.

For `Cc1ccc(-c2cc(C(=O)NCc3cnccn3)cc(N(C)C(=O)C(C)C)c2)c(F)c1` [Compound 60, 2′-Fluoro-5-(isobutyryl-methyl-amino)-4′-methyl-biphenyl-3-carboxylic acid (pyrazin-2-ylmethyl)-amide], the “P2X3 (pIC50 values for the P2X3 receptor)” value was 7.8.

`Cc1ccc(-c2cc(C(=O)NC(C)c3cnccn3)cc(N(C)C(=O)C3CCCCC3)c2)cc1` (stereo not drawn) [Compound 52, 5-(Cyclohexanecarbonyl-methyl-amino)-4′-methyl-biphenyl-3-carboxylic acid (1-pyrazin-2-yl-ethyl)-amide] was tested, and the “P2X3 (pIC50 values for the P2X3 receptor)” value was 5.9.

`CCN(C(=O)CC(C)C)c1cc(C(=O)NC(C)CO)cc(-c2ccc(C)cc2)c1` (stereo not drawn) [Compound 30, 5-[Ethyl-(3-methyl-butyryl)-amino]-4′-methyl-biphenyl-3-carboxylic acid (2-hydroxy-1-methyl-ethyl)-amide] was tested, and the “P2X3 (pIC50 values for the P2X3 receptor)” value was 7.33.

For `Cc1ccc(-c2cc(C(=O)NC(C)c3cnccn3)cc(N(C)C(=O)C(C)C)c2)nc1` (stereo not drawn) [Compound 70, 3-(Isobutyryl-methyl-amino)-5-(5-methyl-pyridin-2-yl)-N-(1-pyrazin-2-yl-ethyl)-benzamide], the “P2X3 (pIC50 values for the P2X3 receptor)” value was 8.11.

`CCN(C(=O)c1ccncc1)c1cc(C(=O)NC(C)COC)cc(-c2ccc(C)cc2)c1` (stereo not drawn) [Compound 28, N-Ethyl-N-[5-(2-methoxy-1-methyl-ethylcarbamoyl)-4′-methyl-biphenyl-3-yl]-isonicotinamide] was tested, and the “P2X3 (pIC50 values for the P2X3 receptor)” value was 5.4.

With `COCC(=O)N(C)c1cc(C(=O)NC(C)c2cnccn2)cc(-c2ccc(C)cc2)c1` (stereo not drawn) [Compound 22, 5-[(2-Methoxy-acetyl)-methyl-amino]-4′-methyl-biphenyl-3-carboxylic acid (1-pyrazin-2-yl-ethyl)-amide] the “P2X3 (pIC50 values for the P2X3 receptor)” value was 6.69.

In the case of `Cc1ccc(-c2cc(C(=O)N[C@@H](C)CO)cc(N(C)C(=O)C(C)C)c2)nc1` [Compound 72, N-((S)-2-Hydroxy-1-methyl-ethyl)-3-(isobutyryl-methyl-amino)-5-(5-methyl-pyridin-2-yl)-benzamide], the “P2X3 (pIC50 values for the P2X3 receptor)” value is reported as 7.58.

In the case of `CCN(C(=O)C(C)C)c1cc(C(=O)NC(C)c2cnccn2)cc(-c2ccc(C)cc2)c1` (stereo not drawn) [Compound 38, 5-(Ethyl-isobutyryl-amino)-4′-mcthyl-biphenyl-3-carboxylic acid (1-pyrazin-2-yl-ethyl)-amide], the “P2X3 (pIC50 values for the P2X3 receptor)” value is reported as 8.11.

`Cc1ccc(-c2cc(C(=O)NC(C)c3cnccn3)cc(N(C(=O)C(C)C)c3ccncn3)c2)cc1` (stereo not drawn) [Compound 26, 5-(Isobutyryl-pyrimidin-4-yl-amino)-4′-methyl-biphenyl-3-carboxylic acid (1-pyrazin-2-yl-ethyl)-amide] was tested, and the “P2X3 (pIC50 values for the P2X3 receptor)” value was 6.99.

In the case of `CC(NC(=O)c1cc(-c2ccc(Cl)cc2)cc(N(C)C(=O)N(C)C)c1)c1cnccn1` (stereo not drawn) [Compound 57, 4′-Chloro-5-(trimethyl-ureido)-biphenyl-3-carboxylic acid (1-pyrazin-2-yl-ethyl)-amide], the “P2X3 (pIC50 values for the P2X3 receptor)” value is reported as 6.26.

`Cc1ccc(-c2cc(C(=O)N[C@@H](C)CO)cc(N(C)C(=O)C(C)C)c2)cc1` [Compound 40, 5-(Isobutyryl-methyl-amino)-4′-methyl-biphenyl-3-carboxylic acid ((S)-2-hydroxy-1-methyl-ethyl)-amide] was tested, and the “P2X3 (pIC50 values for the P2X3 receptor)” value was 8.3.

In the case of `Cc1ccc(-c2cc(C(=O)N[C@@H](C)CO)cc(N(C)C(=O)C3CCCC3)c2)cc1` [Compound 50, 5-(Cyclopentanecarbonyl-methyl-amino)-4′-methyl-biphenyl-3-carboxylic acid ((S)-2-hydroxy-1-methyl-ethyl)-amide], the “P2X3 (pIC50 values for the P2X3 receptor)” value is reported as 7.85.

`CCN(C(=O)c1cnccn1)c1cc(C(=O)NC(C)c2cnccn2)cc(-c2ccc(C)cc2)c1` (stereo not drawn) [Compound 27, Pyrazine-2-carboxylic acid ethyl-[4′-methyl-5-(1-pyrazin-2-yl-ethylcarbamoyl)-biphenyl-3-yl]-amide] was tested, and the IC50 was 4.47 µM.

`Cc1ccc(-c2cc(C(=O)NCc3cnccn3)cc(N(C)C(=O)C(C)C)c2)c(Cl)c1` [Compound 56, 2′-Chloro-5-(isobutyryl-methyl-amino)-4′-methyl-biphenyl-3-carboxylic acid (pyrazin-2-ylmethyl)-amide] was tested, and the “P2X3 (pIC50 values for the P2X3 receptor)” value was 5.6.

`Cc1ccc(-c2cc(C(=O)NC(C)c3cnccn3)cc(N(C)C(=O)C3CCOCC3)c2)cc1` (stereo not drawn) [Compound 43, Tetrahydro-pyran-4-carboxylic acid methyl-[4′-methyl-5-(1-pyrazin-2-yl-ethylcarbamoyl)-biphenyl-3-yl]-amide] was tested, and the “P2X3 (pIC50 values for the P2X3 receptor)” value was 5.86.

In the case of `Cc1ccc(-c2cc(C(=O)N[C@@H](C)CO)cc(N(C)C(=O)C(C)C)c2)c(Cl)c1` [Compound 55, 2′-Chloro-5-(isobutyryl-methyl-amino)-4′-methyl-biphenyl-3-carboxylic acid ((S)-2-hydroxy-1-methyl-ethyl)-amide], the “P2X3 (pIC50 values for the P2X3 receptor)” value is reported as 5.53.

For `CCC(C)(C)C(=O)N(C)c1cc(C(=O)NC(C)c2cnccn2)cc(-c2ccc(C)cc2)c1` (stereo not drawn) [Compound 48, 5-[(2,2-Dimethyl-butyryl)-methyl-amino]-4′-methyl-biphenyl-3-carboxylic acid (1-pyrazin-2-yl-ethyl)-amide], the “P2X3 (pIC50 values for the P2X3 receptor)” value was 7.55.

For `Cc1ccc(-c2cc(C(=O)NC(C)c3cnccn3)cc(N(C)C(=O)C(C)C)c2)c(F)c1` (stereo not drawn) [Compound 58, 2′-Fluoro-5-(isobutyryl-methyl-amino)-4′-methyl-biphenyl-3-carboxylic acid (1-pyrazin-2-yl-ethyl)-amide], the “P2X3 (pIC50 values for the P2X3 receptor)” value was 8.25.

In the case of `COCC(C)NC(=O)c1cc(NC(=O)c2ccccn2)cc(-c2ccc(C)cc2)c1` (stereo not drawn) [Compound 6, Pyridine-2-carboxylic acid [5-(2-methoxy-1-methyl-ethylcarbamoyl)-4′-methyl-biphenyl-3-yl]-amide], the “P2X3 (pIC50 values for the P2X3 receptor)” value is reported as 5.62.

In the case of `Cc1ccc(-c2cc(C(=O)N[C@@H](C)CO)cc(N(C)C(=O)C(C)C)c2)c(F)c1` [Compound 59, 2′-Fluoro-5-(isobutyryl-methyl-amino)-4′-methyl-biphenyl-3-carboxylic acid ((S)-2-hydroxy-1-methyl-ethyl)-amide], the “P2X3 (pIC50 values for the P2X3 receptor)” value is reported as 8.16.

With `COC[C@@H](C)NC(=O)c1cc(-c2ccc(F)cc2F)cc(N(C)C(=O)C(C)C)c1` [Compound 65, 2′,4′-Difluoro-5-(isobutyryl-methyl-amino)-biphenyl-3-carboxylic acid ((R)-2-methoxy-1-methyl-ethyl)-amide] the “P2X3 (pIC50 values for the P2X3 receptor)” value was 5.38.

In the case of `CCC(C)C(=O)N(C)c1cc(C(=O)N[C@@H](C)CO)cc(-c2ccc(C)cc2)c1` (stereo partly drawn) [Compound 53, 4′-Methyl-5-[methyl-(2-methyl-butyryl)-amino]-biphenyl-3-carboxylic acid ((S)-2-hydroxy-1-methyl-ethyl)-amide], the “P2X3 (pIC50 values for the P2X3 receptor)” value is reported as 7.37.
